These results are taken from patent US4172148A, “Ruminant feeds containing trichloroethyl esters of essential amino acids” (E. R. Squibb & Sons, Inc., priority 1978, dated 1979).

Experiment [1] relates to volatile fatty acid concentrations in the in vitro rumen fermentation. The experiment can be described thus: in vitro rumen fermentation, volatile fatty acids, alfalfa hay:concentrate 3:1 (Examples 3 and 12). The note with it: 0.2 mg/ml; 6 h, 39° C. Set-up: species or system sheep. On the procedure: (§1) A one gram sample of substrate ground through a 1 mm screen is weighed into 100 ml. lipless beakers equipped with gas-release valves. The substrate consists of alfalfa hay containing approximately 16% protein and a concentrate containing ground corn 60.7%, alfalfa meal 17.5%, molasses 10.0%, soybean meal 5.3%, wheat bran 5.0%, trace mineralized salt 1.0%, limestone 0.5% and Vitamin D 300,000 I.U./ton, mixed in the proportion 3:1. The experimental composition is added to the substrate. 25 ml. of filtered rumen fluid obtained from fasted sheep maintained on feed the same as the above mentioned substrate and 25 ml. of McDougal's buffer solution serve as the inoculum. The buffer solution is as follows:
(§2) The fermentation mixture is flushed with carbon dioxide and the vessel is capped with a gas release valve. The fermentation vessel (beaker) is placed in a water bath and incubated at 39° C.±1° for six hours. The sample is mixed every hour by shaking the beaker.
(§3) At the end of the 6-hour fermentation period the sample is strained through 4 layers of cheesecloth into a sample bottle containing 1 ml. saturated solution of mercuric chloride. The sample is frozen immediately until analyzed for the volatile fatty acids (VFA) (mg/100 ml.). Prior to analysis, each sample is acidified with 30% phosphoric acid and then analyzed by gas chromatography using a column containing 5% nonylphenoxypolyoxyethylene ethanol plus 0.5% phosphoric acid on 100-120 mesh Gas Chrom S. The acids determined are acetic, propionic, butyric, isobutyric, valeric and isovaleric acids. Total VFA is considered as the addition of these acids. The ratio of acetic: propionic (A:P) is obtained by dividing the concentration of acetic acid by that of propionic acid.
The effect of various compounds alone on the volatile fatty acid concentrations was determined by the procedure of Example 3. […] A direct comparison between phenylalanine and phenylalanine trichloroethyl ester is provided.

Experiment [2] shares this test system. The experiment can be described thus: in vitro rumen fermentation, volatile fatty acids, high concentrate substrate, alfalfa hay:concentrate 1:3 (Examples 4 and 7). The note with it: for Acetic acid / Acetic:propionic / Butyric acid / Propionic acid / Total acids: hay:concentrate 1:3. Set-up: species or system sheep. On the procedure: as §1, §2, §3
The procedure is described in Example 3. In this example, however, the substrate consisted of alfalfa hay and concentrate in the ratio of 1:3 and inoculum was obtained from sheep fed alfalfa and concentrate in the ratio of 1:3. The concentrate (Fit-N-Fresh) is commercially available from Agway, Inc. and contains grain products, plant protein products, processed grain by-products, cane molasses, minerals, vitamins and a preservative.
The 2,2,2-trichloroethyl ester of glycine was tested in vitro in a manner similar to that described in Example 4.

For experiment [3], the system named is volatile fatty acid concentrations in fistulated sheep. In words: volatile fatty acid concentrations in vivo in fistulated sheep, 227 g concentrate and 680 g alfalfa hay (Examples 5 and 8). From the text: Mature sheep (wethers) fitted with permanent rumen fistulae were used to determine the effect of L-phenylalanine, 2,2,2-trichloroethyl ester on volatile fatty acid concentrations in vivo (3 wethers per treatment). The animals were individually penned and fed 227 g. of concentrate (described in Example 3) and 680 g. of alfalfa hay once daily. The test compound was admixed with the concentrate. The sheep were medicated for 7 days. Samples for analysis were obtained before (Day 0) and after treatment (Day 7) approximately 6 hours after feeding.

Another experiment has as its system growing lambs. In words: body weight gain and feed efficiency of growing lambs (Examples 9-11). As to conditions: 0.0044% (40 g/ton) in feed. It counts as in vivo, lambs (sheep). On the procedure: A test was conducted to determine if feeding L-phenylalanine, 2,2,2-trichloroethyl ester to growing lambs was effective in improving growth and feed efficiency. Wether and ewe lambs were divided into groups of 30 lambs each. They were acclimated to their pens for 2 weeks prior to treatment.
The feed supplied to the animals had the following composition
The test compound in an amount of 0.0055% (50 g/ton) was admixed with the above feed composition.
Body weights and feed consumption were recorded at 0, 2, 4 and 6 weeks. Feed efficiencies were calculated.
The test procedure of Example 9 was followed to test the growth effect and feed efficiency of glycine 2,2,2-trichloroethyl ester on growing lambs. The feed composition of Example 9 was used but contained glycine 2,2,2-trichloroethyl ester in an amount of 0.0044% (40 g/ton). There were 44 lambs in the control group receiving the feed composition without additive and 42 lambs receiving the feed composition containing the amino acid ester.
The test procedure of Example 9 was followed to test the growth effect and feed efficiency of L-phenylalanine 2,2,2-trichloroethyl ester on growing lambs. The feed composition of Example 9 was used but contained 0.0088% (80 g/ton) of this amino acid ester. There were 59 lambs in the control group fed the feed without additive and 58 lambs in the group fed the feed composition containing the test compound.

Turning to `N[C@@H](Cc1ccc(Cl)cc1)C(=O)O` (racemic) [p-chlorophenylalanine, reference compound], in experiment [1], the Acetic acid was 91 % of control, the “Acetic:propionic” value was 101 % of control, the Butyric acid is 92 % of control and the Propionic acid is listed as 91 % of control. The Total acids in experiment [1] was 91 % of control.
Take `Br.NCC(=O)OCC(Cl)(Cl)Cl` [2,2,2-trichloroethyl ester of glycine, aminoacetic acid 2,2,2-trichloroethyl ester, hydrobromide]: in experiment [2] (0.2 mg/ml), the Acetic acid is on record as 79 % of control, the “Acetic:propionic” value is recorded as 64 % of control, the Butyric acid is recorded as 119 % of control and the Propionic acid was 123 % of control. Further, in experiment [2] (0.2 mg/ml), the Total acids is on record as 98 % of control. Besides, in experiment [2] (0.4 mg/ml), the Acetic acid was 79 % of control, the “Acetic:propionic” value is 64 % of control, the Butyric acid is on record as 119 % of control and the Propionic acid is given as 123 % of control. The Total acids in experiment [2] (0.4 mg/ml) is recorded as 98 % of control. In experiment [2] (high concentrate substrate), the “effect on acetic:propionic ratio (in words)” value is listed as “decreasing the acetic:propionic ratio” and the “effect on propionic acid concentration (in words)” value was “effective in increasing propionic acid concentration”. Besides, the “Acetic:propionic ratio” value in experiment [3] (Example 8, 500 mg/head/day, treatment, pre-treatment 3.36, control treatment 3.38) was 2.86. For the same molecule, the “Other acids (%)” value in experiment [3] (Example 8, 500 mg/head/day, treatment, pre-treatment 6.1, control treatment 4.2) amounted to 6.6%. For the same molecule, the “Butyric acid (%)” value in experiment [3] (Example 8, 500 mg/head/day, treatment, pre-treatment 15.1, control treatment 14.6) is recorded as 17.9%. In experiment [3] (Example 8, 500 mg/head/day, treatment, pre-treatment 18.1, control treatment 18.6), the “Propionic acid (%)” value stood at 19.6%. For the same molecule, the “Acetic acid (%)” value in experiment [3] (Example 8, 500 mg/head/day, treatment, pre-treatment 60.8, control treatment 62.7) stood at 56.0%. In experiment [3] (Example 8, 500 mg/head/day, treatment, pre-treatment 715, control treatment 678), the Total acid came out at 731 mg/100 ml. Further, in experiment [3] (fistulated sheep, 7 days), the “effect on acetic:propionic ratio (in words)” value was “decreasing the acetic:propionic ratio” and the “effect on proportion of propionic acid (in words)” value is given as “effective in increasing the proportion of propionic acid”. In the experiment with growing lambs (0-2 wks, control 2.32), this molecule showed a Weight gain of 2.31 kg. Also, the Weight gain in the experiment with growing lambs (0-4 wks, control 5.09) came out at 5.13 kg. In the experiment with growing lambs (0-6 wks, control 0.148), the Feed efficiency was found to be 0.154 gain/feed. This molecule showed a Weight gain in the experiment on growing lambs (0-6 wks, control 7.18) of 7.37 kg.
With `N[C@@H](Cc1ccccc1)C(=O)O` [L-phenylalanine, reference compound], in experiment [1], the Acetic acid is given as 95 % of control, the “Acetic:propionic” value is listed as 100 % of control, the Butyric acid is reported as 97 % of control and the Propionic acid is on record as 94 % of control. Moreover, in experiment [1], the Total acids is 96 % of control.
In the case of `O=CC(Cl)(Cl)Cl` [choral, reference compound], in experiment [1], the Acetic acid was 88 % of control, the “Acetic:propionic” value is listed as 80 % of control, the Butyric acid was 110 % of control and the Propionic acid is given as 110 % of control. Also, the Total acids in experiment [1] is reported as 96 % of control.
